Data published in PubChem BioAssay AID248 (DTP/NCI, 2004).
“And” between values parts separate entries of the source, which are not always exact repeats. Equal entries are not always repeated. Toxic doses and inconclusive results are not listed.

System: L1210 leukemia ip in BDF1 mice, survival T/C
Assay: NCI In Vivo Anticancer Drug Screen. Data for tumor model L1210 Leukemia (intraperitoneal) in B6D2F1 (BDF1) mice
Conditions: endpoint: mean survival time, higher = longer survival
How it was run: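 Antitumor effect is assessed in tumor-bearing animals. Survival in the compound arm is compared with a vehicle-dosed control arm and expressed as their quotient.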

[1] = dose: 100.0 mg/kg/injection, schedule: Q04DX003 (ip), vehicle: saline with Tween-80
[2] = dose: 200.0 mg/kg/injection, schedule: Q04DX003 (ip), vehicle: saline with Tween-80
[3] = dose: 400.0 mg/kg/injection, schedule: Q04DX003 (ip), vehicle: saline with Tween-80
[4] = dose: 75.0 mg/kg/injection, schedule: Q01DX001 (ip), vehicle: saline
[5] = dose: 100.0 mg/kg/injection, schedule: Q01DX001 (ip), vehicle: saline
[6] = dose: 200.0 mg/kg/injection, schedule: Q01DX001 (ip), vehicle: saline
[7] = dose: 400.0 mg/kg/injection, schedule: Q01DX001 (ip), vehicle: saline

`O/N=c1/ccn(O)c2ccccc12` was tested, and the T/C (dose: 0.5 mg/kg/injection, schedule: Q03HX008 (ip), vehicle: other) was 114 % of control, the T/C (dose: 0.51 mg/kg/injection, schedule: Q01DX009 (ip), vehicle: saline) was 111 % of control and 119 % of control and the T/C (dose: 0.78 mg/kg/injection, schedule: Q01DX009 (ip), vehicle: saline) was 116 % of control. For the same compound, the T/C (dose: 1.0 mg/kg/injection, schedule: Q01DX009 (sc), vehicle: other) was 114 % of control, the T/C (dose: 1.17 mg/kg/injection, schedule: Q01DX009 (ip), vehicle: saline) was 110 % of control and the T/C (dose: 1.7 mg/kg/injection, schedule: Q01DX015 (ip), vehicle: saline) was 108 % of control. For the same compound, the T/C (dose: 2.0 mg/kg/injection, schedule: Q01DX009 (sc), vehicle: other) was 113 % of control, the T/C (dose: 2.0 mg/kg/injection, schedule: Q01DX015 (ip), vehicle: saline) was 122 % of control and the T/C (dose: 2.0 mg/kg/injection, schedule: Q03HX008 (ip), vehicle: other) was 151 % of control. The T/C (dose: 4.0 mg/kg/injection, schedule: Q01DX001 (sc), vehicle: other) was 118 % of control, the T/C (dose: 4.0 mg/kg/injection, schedule: Q01DX009 (ip), vehicle: other) was 88 % of control and the T/C (dose: 4.0 mg/kg/injection, schedule: Q01DX009 (oral), vehicle: other) was 98 % of control. The T/C (dose: 4.0 mg/kg/injection, schedule: Q01DX009 (sc), vehicle: other) was 104 % of control, the T/C (dose: 4.0 mg/kg/injection, schedule: Q03HX016 (ip), vehicle: other) was 87 % of control and the T/C (dose: 4.4 mg/kg/injection, schedule: Q01DX001 (ip), vehicle: other) was 113 % of control. For the same compound, the T/C (dose: 6.0 mg/kg/injection, schedule: Q01DX015 (ip), vehicle: saline) was 123 % of control, the T/C (dose: 6.6 mg/kg/injection, schedule: Q01DX001 (ip), vehicle: other) was 113 % of control and the T/C (dose: 8.0 mg/kg/injection, schedule: Q01DX001 (ip), vehicle: other) was 108 % of control. The T/C (dose: 8.0 mg/kg/injection, schedule: Q01DX001 (oral), vehicle: other) was 102 % of control, the T/C (dose: 8.0 mg/kg/injection, schedule: Q01DX001 (sc), vehicle: other) was 108 % of control and the T/C (dose: 8.0 mg/kg/injection, schedule: Q01DX005 (ip), vehicle: other) was 93 % of control. The T/C (dose: 8.0 mg/kg/injection, schedule: Q01DX009 (oral), vehicle: other) was 108 % of control, the T/C (dose: 8.0 mg/kg/injection, schedule: Q01DX009 (sc), vehicle: other) was 120 % of control and the T/C (dose: 8.0 mg/kg/injection, schedule: Q04DX003 (ip), vehicle: other) was 110 % of control. For the same compound, the T/C (dose: 8.0 mg/kg/injection, schedule: Q08DX002 (ip), vehicle: other) was 114 % of control, the T/C (dose: 9.0 mg/kg/injection, schedule: Q01DX015 (ip), vehicle: saline) was 87 % of control and the T/C (dose: 16.0 mg/kg/injection, schedule: Q01DX001 (oral), vehicle: other) was 103 % of control. The T/C (dose: 16.0 mg/kg/injection, schedule: Q01DX001 (sc), vehicle: other) was 96 % of control, the T/C (dose: 16.0 mg/kg/injection, schedule: Q01DX009 (oral), vehicle: other) was 103 % of control and the T/C (dose: 25.0 mg/kg/injection, schedule: Q04DX003 (ip), vehicle: saline) was 88 % of control. The T/C (dose: 32.0 mg/kg/injection, schedule: Q01DX001 (oral), vehicle: other) was 113 % of control, the T/C (dose: 32.0 mg/kg/injection, schedule: Q01DX001 (sc), vehicle: other) was 118 % of control and the T/C (dose: 32.0 mg/kg/injection, schedule: Q01DX009 (oral), vehicle: other) was 103 % of control. The T/C (dose: 40.0 mg/kg/injection, schedule: Q01DX001 (ip), vehicle: other) was 109 % of control, the T/C (dose: 64.0 mg/kg/injection, schedule: Q01DX001 (oral), vehicle: other) was 104 % of control and the T/C (dose: 80.0 mg/kg/injection, schedule: Q01DX001 (ip), vehicle: other) was 89 % of control. For the same compound, the T/C (dose: 128.0 mg/kg/injection, schedule: Q01DX001 (oral), vehicle: other) was 103 % of control.

With `O=C(O)CCC(NC(=O)OCc1ccccc1)C(=O)NC(Cc1ccccc1)C(=O)O` (stereo not drawn) the T/C [1] was 102 % of control, the T/C [2] was 101 % of control and the T/C [3] was 101 % of control.

`CC(=O)c1cc(C)c(C)cc1C` was tested, and the T/C (dose: 100.0 mg/kg/injection, schedule: Q01DX001 (ip), vehicle: carboxymethylcellulose (CMC)) was 100 % of control, the T/C (dose: 200.0 mg/kg/injection, schedule: Q01DX001 (ip), vehicle: carboxymethylcellulose (CMC)) was 94 % of control and the T/C (dose: 400.0 mg/kg/injection, schedule: Q01DX001 (ip), vehicle: carboxymethylcellulose (CMC)) was 97 % of control.

For `Cc1cccc(SC(=O)Nc2cc([N+](=O)[O-])ccc2Cl)c1`, the T/C (dose: 100.0 mg/kg/injection, schedule: Q01DX009 (ip), vehicle: Klucel (hydroxypropylcellulose) (HPC)) was 92 % of control, the T/C (dose: 200.0 mg/kg/injection, schedule: Q01DX009 (ip), vehicle: Klucel (hydroxypropylcellulose) (HPC)) was 98 % of control and the T/C (dose: 400.0 mg/kg/injection, schedule: Q01DX009 (ip), vehicle: Klucel (hydroxypropylcellulose) (HPC)) was 88 % of control.

With `O=Cc1ccc(N(c2ccc(C=O)cc2)c2ccc(C=O)cc2)cc1` the T/C [1] was 100 % of control, the T/C [2] was 89 % of control and the T/C [3] was 92 % of control.

For `O=C(C(F)F)C(F)F`, the T/C (dose: 50.0 mg/kg/injection, schedule: Q01DX009 (ip), vehicle: saline) was 91 % of control, the T/C (dose: 100.0 mg/kg/injection, schedule: Q01DX009 (ip), vehicle: saline) was 91 % of control and the T/C (dose: 100.0 mg/kg/injection, schedule: Q04DX003 (ip), vehicle: saline) was 106 % of control. For the same compound, the T/C (dose: 200.0 mg/kg/injection, schedule: Q04DX003 (ip), vehicle: saline) was 104 % of control.

For `CC1(C)N=C(N)N=C(N)N1c1cccc(CNc2ccccc2)c1`, the T/C (dose: 3.12 mg/kg/injection, schedule: Q01DX001 (ip), vehicle: saline) was 95 % of control, the T/C (dose: 6.25 mg/kg/injection, schedule: Q01DX001 (ip), vehicle: saline) was 103 % of control and the T/C (dose: 12.5 mg/kg/injection, schedule: Q01DX001 (ip), vehicle: saline) was 98 % of control. For the same compound, the T/C (dose: 25.0 mg/kg/injection, schedule: Q01DX001 (ip), vehicle: saline) was 93 % of control.

`CC1C(=O)CC(c2ccccc2)N(C)C1c1ccccc1` (stereo not drawn) was tested, and the T/C [4] was 96 % of control, the T/C (dose: 75.0 mg/kg/injection, schedule: Q04DX003 (ip), vehicle: acetone) was 93 % of control and the T/C (dose: 150.0 mg/kg/injection, schedule: Q01DX001 (ip), vehicle: saline) was 91 % of control. For the same compound, the T/C (dose: 150.0 mg/kg/injection, schedule: Q04DX003 (ip), vehicle: acetone) was 98 % of control, the T/C (dose: 300.0 mg/kg/injection, schedule: Q01DX001 (ip), vehicle: saline) was 100 % of control and the T/C (dose: 300.0 mg/kg/injection, schedule: Q04DX003 (ip), vehicle: acetone) was 96 % of control.

In the case of `Cc1nnc(NS(=O)(=O)c2ccc(N=Nc3ccc(O)c4ncccc34)cc2)s1`, the T/C [5] is reported as 105 % of control, the T/C [6] is reported as 102 % of control and the T/C [7] is reported as 96 % of control.

With `CS/C(=C\C(=O)c1ccccc1)C(=O)O` the T/C (dose: 100.0 mg/kg/injection, schedule: Q04DX002 (ip), vehicle: saline) was 110 % of control, the T/C (dose: 200.0 mg/kg/injection, schedule: Q04DX002 (ip), vehicle: saline) was 100 % of control and the T/C (dose: 400.0 mg/kg/injection, schedule: Q04DX002 (ip), vehicle: saline) was 100 % of control.

For `CCOC(=O)NNC(=S)Nc1cccc(C(F)(F)F)c1`, the T/C (dose: 100.0 mg/kg/injection, schedule: Q04DX002 (ip), vehicle: saline with Tween-80) was 111 % of control and the T/C (dose: 200.0 mg/kg/injection, schedule: Q04DX002 (ip), vehicle: saline with Tween-80) was 108 % of control.

`Cc1ccc2c(c1)S(=O)(=O)N(C)C(c1ccccc1)=C2` was tested, and the T/C (dose: 100.0 mg/kg/injection, schedule: Q01DX001 (ip), vehicle: steriod suspending solution) was 96 % of control, the T/C (dose: 200.0 mg/kg/injection, schedule: Q01DX001 (ip), vehicle: steriod suspending solution) was 105 % of control and the T/C (dose: 400.0 mg/kg/injection, schedule: Q01DX001 (ip), vehicle: steriod suspending solution) was 86 % of control.

For `c1cc2c(cc1CNC1CCCCC1)OCO2`, the T/C [4] was 100 % of control.

In the case of `Cn1c(N)c(N=Nc2ccc(S(N)(=O)=O)cc2)c(=O)n(C)c1=O`, the T/C [5] is reported as 94 % of control, the T/C [6] is reported as 102 % of control and the T/C [7] is reported as 96 % of control.

For `O/N=C\c1ccccc1Cl`, the T/C (dose: 100.0 mg/kg/injection, schedule: Q01DX009 (ip), vehicle: saline with Tween-80) was 100 % of control, the T/C (dose: 100.0 mg/kg/injection, schedule: Q04DX003 (ip), vehicle: Klucel (hydroxypropylcellulose) (HPC)) was 100 % of control and the T/C (dose: 200.0 mg/kg/injection, schedule: Q01DX009 (ip), vehicle: saline with Tween-80) was 105 % of control. The T/C (dose: 200.0 mg/kg/injection, schedule: Q04DX003 (ip), vehicle: Klucel (hydroxypropylcellulose) (HPC)) was 100 % of control and the T/C (dose: 400.0 mg/kg/injection, schedule: Q04DX003 (ip), vehicle: Klucel (hydroxypropylcellulose) (HPC)) was 96 % of control.
